Tests used:
Type in all cases: cell-based
[1] = biological target: T1, M1 muscarinic receptor (Homo sapiens, UniProt P11229); assay: Functional mobilization of intracellular calcium (FLIPR) in CHO cells expressing M1; conditions: for M1 Activity: CHO cells expressing M1, FLIPR calcium assay; for Emax: CHO, 100% efficacy = maximum response obtained with the Carbachol control
T1 construct: expressed in transfected cells; host or cells: CHO (M1-CHO)
T1 sequence (P11229 1-460): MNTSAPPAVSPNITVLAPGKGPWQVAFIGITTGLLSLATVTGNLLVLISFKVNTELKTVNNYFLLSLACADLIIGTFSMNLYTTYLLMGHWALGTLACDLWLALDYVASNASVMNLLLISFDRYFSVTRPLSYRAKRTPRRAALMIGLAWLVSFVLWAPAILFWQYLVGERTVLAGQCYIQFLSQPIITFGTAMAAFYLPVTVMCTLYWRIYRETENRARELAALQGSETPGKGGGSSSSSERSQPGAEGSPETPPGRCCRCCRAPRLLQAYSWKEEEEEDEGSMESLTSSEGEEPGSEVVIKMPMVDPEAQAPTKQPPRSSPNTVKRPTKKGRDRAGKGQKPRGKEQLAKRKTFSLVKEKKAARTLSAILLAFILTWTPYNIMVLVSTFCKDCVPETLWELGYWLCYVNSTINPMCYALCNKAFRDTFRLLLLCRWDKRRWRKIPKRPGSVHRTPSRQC
How it was run: (§1)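 Recombinant CHO cells loaded with Fluo-3 AM or Calcium 3 dye in pH 7.4 buffer containing 1 mM probenecid, with 0.5% final DMSO. For agonism, compound is added directly. For inhibition, it is preincubated 15 min, or co-applied, before carbachol at EC80. FLIPR fluorescence (ex 488, em 540 nm) is recorded for 60 s.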

[2] = biological target: T2, M2 muscarinic receptor (Homo sapiens, UniProt P08172); assay: Functional mobilization of intracellular calcium (FLIPR) in CHO cells expressing M2; conditions: for M2 Activity: CHO cells expressing M2, FLIPR calcium assay; for Emax: CHO, 100% efficacy = maximum response obtained with the Carbachol control
T2 construct: expressed in transfected cells; host or cells: CHO (M2-CHO)
T2 sequence (P08172 1-466): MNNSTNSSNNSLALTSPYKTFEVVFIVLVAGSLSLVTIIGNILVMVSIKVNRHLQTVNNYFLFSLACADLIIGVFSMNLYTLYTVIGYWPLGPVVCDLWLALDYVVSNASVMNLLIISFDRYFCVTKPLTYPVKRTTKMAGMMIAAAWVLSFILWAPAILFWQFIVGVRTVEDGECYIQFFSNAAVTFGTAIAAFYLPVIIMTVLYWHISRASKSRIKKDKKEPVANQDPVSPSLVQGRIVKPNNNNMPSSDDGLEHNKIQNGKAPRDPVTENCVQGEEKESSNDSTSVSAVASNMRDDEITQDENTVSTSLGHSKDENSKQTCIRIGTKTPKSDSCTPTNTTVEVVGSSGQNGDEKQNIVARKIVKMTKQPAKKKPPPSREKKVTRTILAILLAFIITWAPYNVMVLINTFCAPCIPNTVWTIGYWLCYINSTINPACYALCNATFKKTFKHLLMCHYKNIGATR
How it was run: as §1

[3] = biological target: T3, M3 muscarinic receptor (Homo sapiens, UniProt P20309); assay: Functional mobilization of intracellular calcium (FLIPR) in CHO cells expressing M3; conditions: for M3 Activity: CHO cells expressing M3, FLIPR calcium assay; for Emax: CHO, 100% efficacy = maximum response obtained with the Carbachol control
T3 construct: expressed in transfected cells; host or cells: CHO (M3-CHO)
T3 sequence (P20309 whole entry): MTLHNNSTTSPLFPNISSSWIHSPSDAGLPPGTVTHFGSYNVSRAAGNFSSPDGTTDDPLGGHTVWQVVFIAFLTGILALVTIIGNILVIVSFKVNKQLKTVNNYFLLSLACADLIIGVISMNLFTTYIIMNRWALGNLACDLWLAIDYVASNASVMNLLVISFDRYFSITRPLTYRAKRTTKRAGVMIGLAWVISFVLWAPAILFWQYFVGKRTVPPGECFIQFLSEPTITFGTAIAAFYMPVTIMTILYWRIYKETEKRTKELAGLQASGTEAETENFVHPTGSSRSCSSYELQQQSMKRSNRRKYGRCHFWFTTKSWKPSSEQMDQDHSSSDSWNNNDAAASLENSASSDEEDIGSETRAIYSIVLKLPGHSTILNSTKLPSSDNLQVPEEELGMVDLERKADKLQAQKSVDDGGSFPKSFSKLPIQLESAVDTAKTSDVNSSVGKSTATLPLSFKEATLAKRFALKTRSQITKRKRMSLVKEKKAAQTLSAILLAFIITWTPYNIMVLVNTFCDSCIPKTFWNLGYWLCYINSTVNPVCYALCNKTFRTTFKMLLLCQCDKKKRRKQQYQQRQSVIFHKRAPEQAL
How it was run: as §1

[4] = biological target: T4, M4 muscarinic receptor (Homo sapiens, UniProt P08173); assay: Functional mobilization of intracellular calcium (FLIPR) in CHO cells expressing M4; conditions: for M4 Activity: CHO cells expressing M4, FLIPR calcium assay; for Emax: CHO, 100% efficacy = maximum response obtained with the Carbachol control
T4 construct: expressed in transfected cells; host or cells: CHO (M4-CHO)
T4 sequence (P08173 1-479): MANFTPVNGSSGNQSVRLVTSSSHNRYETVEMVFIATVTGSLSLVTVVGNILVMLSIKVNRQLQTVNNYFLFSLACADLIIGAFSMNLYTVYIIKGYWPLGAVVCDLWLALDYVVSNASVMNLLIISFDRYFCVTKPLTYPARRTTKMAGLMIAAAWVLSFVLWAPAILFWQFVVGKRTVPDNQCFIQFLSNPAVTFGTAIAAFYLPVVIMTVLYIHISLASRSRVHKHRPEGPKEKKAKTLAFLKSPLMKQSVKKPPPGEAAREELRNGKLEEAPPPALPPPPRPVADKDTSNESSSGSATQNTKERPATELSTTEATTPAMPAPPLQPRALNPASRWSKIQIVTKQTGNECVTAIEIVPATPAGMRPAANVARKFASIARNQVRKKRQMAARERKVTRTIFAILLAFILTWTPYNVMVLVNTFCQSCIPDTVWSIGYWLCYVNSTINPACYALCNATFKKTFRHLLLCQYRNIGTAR
How it was run: as §1

COC(=O)CCCN1CCC2(CC1)C[C@H](NC(C)=O)c1ccccc12 [compound 237]
M1 Activity [1]: + (activity was measured to be greater than 5.0 μM) | Emax [1]: 25 to 100% | M2 Activity [2]: + (activity was measured to be greater than 5.0 μM) | Emax [2]: < 25% | M3 Activity [3]: + (activity was measured to be greater than 5.0 μM) | Emax [3]: < 25% | M4 Activity [4]: + (activity was measured to be greater than 5.0 μM) | Emax [4]: 25 to 100%

C/C=C(\C)CN1CCC2(CC1)C[C@H](NC(C)=O)c1ccccc12 [compound 238]
M1 Activity [1]: + (activity was measured to be greater than 5.0 μM) | Emax [1]: < 25% | M2 Activity [2]: + (activity was measured to be greater than 5.0 μM) | Emax [2]: < 25% | M3 Activity [3]: + (activity was measured to be greater than 5.0 μM) | Emax [3]: < 25% | M4 Activity [4]: + (activity was measured to be greater than 5.0 μM) | Emax [4]: < 25%

COc1cc2c(cc1OC)C1(CCN(C(=O)OC(C)(C)C)CC1)CC2=O [compound 239]
M1 Activity [1]: + (activity was measured to be greater than 5.0 μM) | Emax [1]: < 25% | M2 Activity [2]: + (activity was measured to be greater than 5.0 μM) | Emax [2]: < 25% | M3 Activity [3]: + (activity was measured to be greater than 5.0 μM) | Emax [3]: < 25% | M4 Activity [4]: + (activity was measured to be greater than 5.0 μM) | Emax [4]: < 25%

CCNC(=O)CN1CCC2(CC1)C[C@H](NC(C)=O)c1ccccc12 [compound 241]
M1 Activity [1]: + (activity was measured to be greater than 5.0 μM) | Emax [1]: < 25% | M2 Activity [2]: + (activity was measured to be greater than 5.0 μM) | Emax [2]: < 25% | M3 Activity [3]: + (activity was measured to be greater than 5.0 μM) | Emax [3]: < 25% | M4 Activity [4]: + (activity was measured to be greater than 5.0 μM) | Emax [4]: < 25%

C=CCCCN1CCC2(CC1)C[C@H](NC(C)=O)c1ccccc12 [compound 242]
M1 Activity [1]: + (activity was measured to be greater than 5.0 μM) | Emax [1]: 25 to 100% | M2 Activity [2]: + (activity was measured to be greater than 5.0 μM) | Emax [2]: < 25% | M3 Activity [3]: + (activity was measured to be greater than 5.0 μM) | Emax [3]: < 25% | M4 Activity [4]: ++ (activity was measured to be from 2.0 μM to 5.0 μM) | Emax [4]: 25 to 100%

CC(=O)N[C@H]1CC2(CCN(CC(C)(C)C)CC2)c2ccccc21 [compound 243]
M1 Activity [1]: + (activity was measured to be greater than 5.0 μM) | Emax [1]: 25 to 100% | M2 Activity [2]: + (activity was measured to be greater than 5.0 μM) | Emax [2]: 25 to 100% | M3 Activity [3]: + (activity was measured to be greater than 5.0 μM) | Emax [3]: < 25% | M4 Activity [4]: +++ (activity was measured to be less than 2.0 μM) | Emax [4]: 25 to 100%

CC(=O)N[C@H]1CC2(CCN(CCC(C)(C)C)CC2)c2ccccc21 [compound 244]
M1 Activity [1]: +++ (activity was measured to be less than 2.0 μM) | Emax [1]: 25 to 100% | M2 Activity [2]: + (activity was measured to be greater than 5.0 μM) | Emax [2]: < 25% | M3 Activity [3]: + (activity was measured to be greater than 5.0 μM) | Emax [3]: < 25% | M4 Activity [4]: +++ (activity was measured to be less than 2.0 μM) | Emax [4]: 25 to 100%

CC(C)(C)CN1CCC2(CC1)CC(C(=O)O)c1ccccc12 (stereo not shown) [compound 246]
M1 Activity [1]: + (activity was measured to be greater than 5.0 μM) | Emax [1]: < 25% | M2 Activity [2]: + (activity was measured to be greater than 5.0 μM) | Emax [2]: < 25% | M3 Activity [3]: + (activity was measured to be greater than 5.0 μM) | Emax [3]: < 25% | M4 Activity [4]: + (activity was measured to be greater than 5.0 μM) | Emax [4]: < 25%

Reference: patent publication US8003660B2, “Modulators of muscarinic receptors” (Vertex Pharmaceuticals Incorporated, priority 2006, dated 2011)
